Measured values from ChEMBL document CHEMBL4354850, “The Other Angiotensin II Receptor: AT2R as a Therapeutic Target” (J Med Chem, 2020).
Values belong to the molecule of their own block, whether it stands above or below them. Where a SMILES comes first, the peptide text is derived from it.

Experiments:
[1] = molecular target: T1, Type-2 angiotensin II receptor (Rattus norvegicus, UniProt P35351); test: Inhibition of rat AT2 receptor
T1 sequence (P35351 whole entry): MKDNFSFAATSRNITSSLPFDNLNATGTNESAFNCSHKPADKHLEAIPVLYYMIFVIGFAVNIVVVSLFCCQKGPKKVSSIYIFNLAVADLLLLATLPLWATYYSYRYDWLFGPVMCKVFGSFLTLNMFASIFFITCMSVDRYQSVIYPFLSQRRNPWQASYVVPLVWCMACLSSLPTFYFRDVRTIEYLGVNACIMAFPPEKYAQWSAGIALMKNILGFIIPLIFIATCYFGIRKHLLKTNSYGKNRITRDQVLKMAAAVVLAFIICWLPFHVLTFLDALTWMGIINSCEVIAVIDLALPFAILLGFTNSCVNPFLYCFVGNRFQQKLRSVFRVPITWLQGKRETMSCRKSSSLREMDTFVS

[2] = molecular target: T2, Type-1 angiotensin II receptor A (Rattus norvegicus, UniProt P25095); test: Inhibition of rat AT1 receptor
T2 sequence (P25095 whole entry): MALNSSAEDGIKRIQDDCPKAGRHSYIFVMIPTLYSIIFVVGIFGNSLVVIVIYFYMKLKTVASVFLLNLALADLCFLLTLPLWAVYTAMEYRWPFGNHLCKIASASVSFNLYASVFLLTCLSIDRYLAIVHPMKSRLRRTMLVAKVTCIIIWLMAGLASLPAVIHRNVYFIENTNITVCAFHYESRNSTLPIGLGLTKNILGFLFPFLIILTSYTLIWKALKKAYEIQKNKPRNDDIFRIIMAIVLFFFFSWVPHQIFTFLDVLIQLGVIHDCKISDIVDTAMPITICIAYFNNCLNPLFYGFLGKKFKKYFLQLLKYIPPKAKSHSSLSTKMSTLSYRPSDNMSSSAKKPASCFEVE

[3] = molecular target: T2, Type-1 angiotensin II receptor A; test: Displacement of [125I]Ang II from AT1 receptor in rat liver membranes; assay type: cell membranes
[4] = Displacement of [125I]Ang II from AT2 receptor in pig uterus membranes; assay type: cell membranes, Sus scrofa
[5] = molecular target: T3, Type-1 angiotensin II receptor (Homo sapiens, UniProt P30556); test: Inhibition of human AT1 receptor
T3 sequence (P30556 whole entry): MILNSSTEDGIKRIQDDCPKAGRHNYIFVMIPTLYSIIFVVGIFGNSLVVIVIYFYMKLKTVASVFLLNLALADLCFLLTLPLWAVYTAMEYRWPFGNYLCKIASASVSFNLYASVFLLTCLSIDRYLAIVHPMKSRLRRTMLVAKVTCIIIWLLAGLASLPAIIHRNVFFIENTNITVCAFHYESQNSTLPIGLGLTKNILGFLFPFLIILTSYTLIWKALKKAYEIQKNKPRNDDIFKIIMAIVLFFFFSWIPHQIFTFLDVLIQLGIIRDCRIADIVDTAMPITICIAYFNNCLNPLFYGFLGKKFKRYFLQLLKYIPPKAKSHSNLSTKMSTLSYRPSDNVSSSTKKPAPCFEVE

Proto-oncogene Mas [6] = molecular target: T4, Proto-oncogene Mas (Homo sapiens, UniProt P04201); test: Agonist activity at N-terminal c-Myc tagged human MasR expressed in HEK293T cells assessed as reduction in forskolin-induced cAMP accumulation; assay type: functional, cell-based
T4 sequence (P04201 whole entry): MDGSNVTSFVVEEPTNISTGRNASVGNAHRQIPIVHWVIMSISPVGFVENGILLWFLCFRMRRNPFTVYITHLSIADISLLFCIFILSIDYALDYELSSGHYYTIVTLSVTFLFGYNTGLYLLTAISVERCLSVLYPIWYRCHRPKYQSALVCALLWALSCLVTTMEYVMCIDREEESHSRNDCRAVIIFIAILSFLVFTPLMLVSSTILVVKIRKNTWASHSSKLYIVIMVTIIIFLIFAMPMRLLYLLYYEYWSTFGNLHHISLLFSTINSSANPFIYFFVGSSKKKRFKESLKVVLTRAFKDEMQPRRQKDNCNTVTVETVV

Proto-oncogene Mas [7] = molecular target: T4, Proto-oncogene Mas; test: Antagonist activity at N-terminal c-Myc tagged human MasR expressed in HEK293T cells by cAMP accumulation based assay; assay type: functional, cell-based
[8] = molecular target: T2, Type-1 angiotensin II receptor A; test: Displacement of [125I]Ang II from AT1 receptor in rat SMC membranes incubated for 60 mins by gamma counting method; assay type: cell membranes

SMILES: COc1ccc2c(c1OCc1ccccc1)CC(C(=O)O)N(C(=O)C(c1ccccc1)c1ccccc1)C2 (stereo not drawn)
- IC50 [1]: 75.2 nM
- IC50 [2]: 2.9 mM

SMILES: CCCCOC(=O)NS(=O)(=O)c1ccc(Cc2cccc(OC)c2)cc1-c1ccc(Cn2c(CC)nc3c(C)cc(C)nc32)cc1
- IC50 [3]: 1.4 nM
- IC50 [4]: 101 nM

SMILES: Cc1cc(Cn2cnc3c2C[C@@H](C(=O)O)N(C(=O)C(c2ccccc2)c2ccccc2)C3)ccc1N(C)C
- Ki [5]: 12 nM

SMILES: COc1ccc2c(c1OCc1ccccc1)C[C@H](C(=O)O)N(C(=O)C(c1ccccc1)c1ccccc1)C2
- IC50 [5]: 1100 nM

SMILES: CC[C@H](C)[C@H](NC(=O)[C@H](Cc1ccc(O)cc1)NC(=O)[C@@H](NC(=O)[C@H](CCCNC(=N)N)NC(=O)[C@@H](N)CC(=O)O)C(C)C)C(=O)N[C@@H](Cc1cnc[nH]1)C(=O)N[C@H](C)C(=O)O (HELM PEPTIDE1{D.R.V.Y.I.H.[dA]}$$$$V2.0)
- IC50 (Proto-oncogene Mas [7]): 0.3 nM

SMILES: CC[C@H](C)[C@H](NC(=O)[C@@H]1CCCN1C(=O)[C@H](Cc1c[nH]cn1)NC(=O)[C@H](CCCCNC(=O)[C@H](CCCN=C(N)N)NC(=O)OCc1ccccc1)NC(=O)[C@H](Cc1ccc(O)cc1)NC(=O)c1cccnc1)C(=O)O (HELM PEPTIDE1{[O=C(c1cccnc1)[*:2]].Y.K.H.P.I}|PEPTIDE2{[O=C(OCc1ccccc1)[*:2]].R}$PEPTIDE1,PEPTIDE2,3:R3-2:R2$$$V2.0)
- Ki [8]: 1700 nM

SMILES: COc1ccc2c(c1OCc1ccccc1)C[C@@H](C(=O)O)N(C(=O)C(c1ccccc1)c1ccccc1)C2 [OLODANRIGAN]
- IC50 [5]: 39 nM

Other lines, results leading:

- Ki [3]: 3.9 nM
- Ki [4]: 2.8 nM
SMILES: CCCCOC(=O)NS(=O)(=O)c1sc(CC(C)C)cc1-c1ccc(Cn2c(CC)nc3c(C)cc(C)nc32)cc1

- IC50 (Proto-oncogene Mas [6]): 21 nM
SMILES: CCNC(=O)NS(=O)(=O)c1sc(CC(C)C)cc1-c1ccc(Cn2c(-c3ccccc3)nc(OC)c2C=O)cc1

- Ki [3]: > 10000 nM
SMILES: CCCCOC(=O)NS(=O)(=O)c1sc(CC(C)C)cc1-c1ccc(Cn2ccnc2)cc1 [BULOXIBUTID]
